“And” between values parts separate entries of the source, which are not always exact repeats. Equal values may be shown once. “Also recorded” adds a separate entry of the source. Marks after values point to notes of the source that are not given here.
Experiments:
Fhit +/+ mice = test: Carcinogenicity study: NMBA tumor induction in Fhit +/+ mice; assay type: in vivo, mouse (C57BL/6J X 129/SvJ) F1
Protocol: (§1) (C57BL/6J X 129/SvJ) F1 mice (B6129F1s) that were Fhit +/+ or +/− were produced. 18 Fhit +/+ and 22 Fhit +/− mice (30-46 weeks) were given 8 intragastric doses of NMBA (Ash Stevens, Detroit, Mich.) over the course of 3 weeks at 2 mg/kg body weight. About half the mice were sacrificed six weeks after the final NMBA dose and the remaining mice at ten weeks. Tumor incidence differences were analyzed by two-tailed Fisher's exact test (Armitage and Berry, 1987, Statistical Methods in Medical Research, 2nd Ed., Blackwell Scientific, Oxford). For comparison, four untreated Fhit +/− mice (54-59 weeks old) and one untreated Fhit +/+ mouse (59 weeks old) were similarly autopsied. At autopsy, whole esophagi and stomachs were removed and opened longitudinally. Other tissues with apparent tumors were also examined. The number of animals bearing tumors in the esophagus, forestomach, squamocolumnar junction with the glandular stomach (SCJ) and other tissues were scored. Tissues were fixed in buffered formalin and examined histologically after hematoxylin and eosin (H&E) staining for the presence of hyperkeratosis, parakeratosis, dysplasia, papillomas, adenomas and carcinomas.

Fhit +/− mice = test: Carcinogenicity study: NMBA tumor induction in Fhit +/− mice; assay type: in vivo, mouse (C57BL/6J X 129/SvJ) F1
Protocol: as §1

Fhit exons 4 through 9 = test: Fhit sequence analysis of NMBA-induced tumors; set-up: species or system mouse; conditions: DNA from sebaceous tumors of mice 21, 27, 31 and squamous papillomas of mice 25, 27
Excerpt: Primer pairs flanking each of the human FHIT exons (Druck et al., […], Cancer Res. 57:504-512) and the mouse FHIT coding exons were used in PCR amplification of DNA from MTS cases or mouse tumors, respectively. Primer pairs surrounding the mouse FHIT exons were previously published (Pekarsky et al., 1998, Cancer Res. 58:3401-3408) for exons 5 and 6 or newly designed […]
The products were purified with a PCR purification kit (Qiagen) before sequencing using Taq DyeDeoxy Terminator Cycle Sequencing Kits (ABI). Sequencing reaction products were electrophoresed and recorded on a 377 DNA sequencer (ABI). Southern Blot Analysis

[1] = tested on: esophageal and forestomach tumors; conditions: administered by gavage or in the drinking water; cited from earlier work
[2] = Fhit +/+, individual mice, 10 weeks after NMBA, T = tumors
[3] = Fhit +/−, individual mice, 10 weeks after NMBA, T = tumors

Substance: N-nitrosomethylbenzylamine [NMBA]
- Fraction of tumor bearing animals, Fore stomach (Fhit +/+ mice; 6 wk post-treatment, Fhit +/+): 1/10
- Fraction of tumor bearing animals, SCJ (Fhit +/+ mice; 6 wk post-treatment, Fhit +/+): 0/10
- Tumor Bearing Mice (Fhit +/+ mice; 6 wk post-treatment, Fhit +/+): 2/10
- Fraction of tumor bearing animals, Esoph (Fhit +/+ mice; 6 wk post-treatment, Fhit +/+, number of mice with tumors/number of mice, 8 intragastric doses 2 mg/kg): 1/10
- Fraction of tumor bearing animals, Esoph (Fhit +/+ mice; 10 wk post-treatment, Fhit +/+): 0/8
- Fraction of tumor bearing animals, Fore stomach (Fhit +/+ mice; 10 wk post-treatment, Fhit +/+): 1/8
- Fraction of tumor bearing animals, SCJ (Fhit +/+ mice; 10 wk post-treatment, Fhit +/+): 1/8
- Fraction of tumor bearing animals, Sebaceous (Fhit +/+ mice; 10 wk post-treatment, Fhit +/+): 0/8
- Tumor Bearing Mice (Fhit +/+ mice; 10 wk post-treatment, Fhit +/+): 2/8
- Extragastric tumors (Fhit +/+ mice; Fhit +/+ mice): not observed
- Comments (by histology) (Fhit +/+ mice; Fhit +/+, individual mice, 10 weeks after NMBA): sq papillomas; also recorded: papillary hyperplasia, esophagus; also recorded: adenoma
- Phenotype Esoph. (Fhit +/+ mice; [2]): thick
- Phenotype Forestomach (Fhit +/+ mice; [2]): thick; also recorded: sm. T
- Phenotype SCJ (Fhit +/+ mice; [2]): thick and 7T+3 mm
- body wt. (amount of wt. change during the experiment) (Fhit +/+ mice; Fhit +/+, individual mice, 10 weeks after NMBA, given with ↑): ↑1 g and ↑4 g (3×) and ↑6 g and ↑3 g (2×) and ↑2 g
- Mice developing sebaceous tumors (Fhit +/+ mice; NMBA treated Fhit +/+ mice): none
- Esophageal squamous papilloma by histological examination (Fhit +/+ mice; six weeks after NMBA, Fhit +/+): 1/10
- Mice showing a very small tumor of the esophagus or forestomach on inspection (Fhit +/+ mice; six weeks after treatment, Fhit +/+): two of ten
- Mice with tumors (Fhit +/+ mice; six weeks post NMBA, Fhit +/+, histology): 20%
- Tumor burden (mice exhibiting tumors) (Fhit +/+ mice; ten weeks post NMBA, Fhit +/+): 25%
- Mice exhibiting tumors on inspection (Fhit +/+ mice; ten weeks, Fhit +/+): two of eight
- Fraction of tumor bearing animals, Fore stomach (Fhit +/− mice; 6 wk post-treatment, Fhit +/−): 5/10
- Fraction of tumor bearing animals, SCJ (Fhit +/− mice; 6 wk post-treatment, Fhit +/−): 4/10
- Tumor Bearing Mice (Fhit +/− mice; 6 wk post-treatment, Fhit +/−): 7/10
- Fraction of tumor bearing animals, Esoph (Fhit +/− mice; 6 wk post-treatment, Fhit +/−, 1 esophagus showed dysplasia): 0/10^b
- Fraction of tumor bearing animals, Esoph (Fhit +/− mice; 10 wk post-treatment, Fhit +/−): 2/12
- Fraction of tumor bearing animals, Fore stomach (Fhit +/− mice; 10 wk post-treatment, Fhit +/−): 10/12
- Fraction of tumor bearing animals, SCJ (Fhit +/− mice; 10 wk post-treatment, Fhit +/−): 5/12
- Fraction of tumor bearing animals, Sebaceous (Fhit +/− mice; 10 wk post-treatment, Fhit +/−): 7/12
- Tumor Bearing Mice (Fhit +/− mice; 10 wk post-treatment, Fhit +/−): 12/12
- Comments (by histology) (Fhit +/− mice; Fhit +/−, individual mice, 10 weeks after NMBA): sq. carcinoma forestomach, sq. pap. SCJ; also recorded: sq. pap. forestomach, Barretts-like gastric mucosa SCJ; also recorded: sq. pap. and adenoma forestomach; also recorded: sq. pap. and sq. carcinoma forestomach; also recorded: sq. pap. esoph, forestomach, SCJ; also recorded: sebaceous adnexal tumor; also recorded: sq. pap. esoph and forestomach, seb. tumor; also recorded: sq. pap. forestomach, sebaccous tumor; also recorded: hyperplastic gastric mucosa, SCJ sq. pap. seb. tumor; also recorded: forestomach sq. papillomas; sebaceous tumor
- Phenotype Forestomach (Fhit +/− mice; [3]): 2T and few sm. T and multiple T (3×) and T.2-3 mm
- Phenotype SCJ (Fhit +/− mice; [3]): few T; also recorded: multiple T
- body wt. (amount of wt. change during the experiment) (Fhit +/− mice; Fhit +/−, individual mice, 10 weeks after NMBA, given with ↑): ↑3 g (2×) and ↑2 g (3×) and ↑4 g (4×) and ↑8 g (2×) and ↑6 g
- Mice with large (>5×5 mm) sebaceous tumors (Fhit +/− mice; NMBA treated Fhit +/− mice under 1 yr. of age): 5 of 12
- Mice with one or more subcutis tumors in abdominal, mammary or axial area on autopsy (Fhit +/− mice; autopsy at 10 weeks, Fhit +/−): more than 50%
- Mice developing a spectrum of visceral and skin tumors (Fhit +/− mice; by ten weeks after NMBA exposure, Fhit +/−): all
- Mice showing tumors in the subcutis of the abdomen (visible before autopsy) (Fhit +/− mice; by ten weeks after the final dose, Fhit +/−): three
- Mice showing one or more small tumors on inspection of whole esophagus and stomach (Fhit +/− mice; six weeks after treatment, Fhit +/−): seven of ten
- Mice with tumors (Fhit +/− mice; six weeks post NMBA, Fhit +/−, histology): 70%
- Tumor burden (mice exhibiting tumors) (Fhit +/− mice; ten weeks post NMBA, Fhit +/−): 100%
- Mice showing apparent tumors in forestomach, squamocolumnar junction and/or other tissues (Fhit +/− mice; ten weeks, Fhit +/−, inspection): eleven of twelve
- NMBA-induced mutations within Fhit exons 4 through 9 (Fhit exons 4 through 9): No mutations were detected
- Tumor induction [1]: induce both esophageal and forestomach tumors
